# Assay results from patent US11649227B2, “Allosteric chromenone inhibitors of phosphoinositide 3-kinase (PI3K) for the treatment of disease” (Petra Pharma Corporation, priority 2020, dated 2023).
# Target: human full length PIK3CA Wild-type (p110α/p85α complex) (Homo sapiens (Human), UniProt P42336)
# Assay: PI3K-Alpha kinase (PIK3CA) activity, wild-type, Transcreener ADP2 FI assay
# Settings: PI3K-α (PIK3CA) wild-type, biochemical
# Method in brief: (§1)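 Recombinant full-length p110α/p85α (1-5 nM, wild-type or H1047R) preincubated with compound 1 h at 27° C, then reacted with 25 uM ATP and 50 uM PIP2diC8 or membrane PIP2:PS in pH 7.4 HEPES, 25 mM MgCl2, 5% DMSO (also pH 6.0/6.4 MOPS). Run to ~2.5 uM ADP; Transcreener ADP2 fluorescence converted via ADP calibration for IC50.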
# Sequence of human full length PIK3CA Wild-type (p110α/p85α complex) (P42336 whole entry): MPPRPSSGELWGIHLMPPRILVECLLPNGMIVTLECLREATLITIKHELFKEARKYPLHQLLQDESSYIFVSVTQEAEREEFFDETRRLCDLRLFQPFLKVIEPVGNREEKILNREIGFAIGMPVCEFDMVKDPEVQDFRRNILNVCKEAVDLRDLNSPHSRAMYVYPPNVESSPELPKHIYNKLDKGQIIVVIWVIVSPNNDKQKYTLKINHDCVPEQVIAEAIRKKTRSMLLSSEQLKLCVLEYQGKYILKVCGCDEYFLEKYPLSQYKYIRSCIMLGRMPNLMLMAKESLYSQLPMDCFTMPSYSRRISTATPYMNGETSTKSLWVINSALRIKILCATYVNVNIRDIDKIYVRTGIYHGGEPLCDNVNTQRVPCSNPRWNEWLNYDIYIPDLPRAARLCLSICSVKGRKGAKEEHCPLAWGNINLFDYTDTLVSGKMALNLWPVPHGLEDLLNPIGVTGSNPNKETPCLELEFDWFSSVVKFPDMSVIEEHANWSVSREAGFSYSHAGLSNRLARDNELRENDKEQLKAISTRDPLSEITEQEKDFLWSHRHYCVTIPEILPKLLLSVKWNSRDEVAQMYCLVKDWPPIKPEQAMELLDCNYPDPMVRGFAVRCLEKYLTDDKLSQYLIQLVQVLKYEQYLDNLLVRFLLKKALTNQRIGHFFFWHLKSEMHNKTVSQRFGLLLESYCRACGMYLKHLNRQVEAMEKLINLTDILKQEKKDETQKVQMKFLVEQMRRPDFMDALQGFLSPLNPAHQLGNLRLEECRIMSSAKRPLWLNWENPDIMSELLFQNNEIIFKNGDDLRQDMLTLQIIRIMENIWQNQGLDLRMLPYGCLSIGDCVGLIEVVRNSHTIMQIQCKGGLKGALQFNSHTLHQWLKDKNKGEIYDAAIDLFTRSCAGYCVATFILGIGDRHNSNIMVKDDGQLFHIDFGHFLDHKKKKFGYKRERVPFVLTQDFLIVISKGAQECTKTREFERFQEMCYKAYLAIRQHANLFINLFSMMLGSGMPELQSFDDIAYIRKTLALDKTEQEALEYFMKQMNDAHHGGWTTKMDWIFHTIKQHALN
# Sequence of human full length PIK3CA Wild-type (p110α/p85α complex) (P27986 whole entry partner): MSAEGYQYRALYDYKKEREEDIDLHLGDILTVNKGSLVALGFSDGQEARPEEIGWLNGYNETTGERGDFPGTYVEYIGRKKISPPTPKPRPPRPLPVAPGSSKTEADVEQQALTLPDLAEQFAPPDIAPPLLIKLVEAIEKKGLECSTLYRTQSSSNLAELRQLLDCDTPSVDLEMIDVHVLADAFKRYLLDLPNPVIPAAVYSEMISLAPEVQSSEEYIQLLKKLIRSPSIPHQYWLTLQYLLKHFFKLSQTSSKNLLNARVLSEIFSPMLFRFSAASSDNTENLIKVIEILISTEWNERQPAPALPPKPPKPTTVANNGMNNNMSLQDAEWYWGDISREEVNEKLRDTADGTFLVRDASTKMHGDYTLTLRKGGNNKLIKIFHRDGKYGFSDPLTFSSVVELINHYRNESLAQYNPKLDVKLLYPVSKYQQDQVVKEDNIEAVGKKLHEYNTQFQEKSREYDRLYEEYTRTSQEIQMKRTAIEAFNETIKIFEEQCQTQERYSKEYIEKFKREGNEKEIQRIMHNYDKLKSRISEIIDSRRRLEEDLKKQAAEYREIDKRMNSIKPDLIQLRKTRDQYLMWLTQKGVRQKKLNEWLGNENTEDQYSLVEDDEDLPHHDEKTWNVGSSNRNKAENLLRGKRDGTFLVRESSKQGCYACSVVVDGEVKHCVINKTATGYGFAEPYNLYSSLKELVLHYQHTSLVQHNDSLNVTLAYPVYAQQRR
row,IC50 [nM],Structure (SMILES)
1,500 to 1000,"Cc1cc(C(C)Nc2ccccc2-c2nnn[nH]2)c2oc(N3CCC(C)(C)CC3)cc(=O)c2c1 (stereo not drawn) [Example 20, 2-(4,4-Dimethyl-1-piperidyl)-6-methyl-8-[1-[2-(1H-tetrazol-5-yl)anilino]ethyl]chromen-4-one]"
2,500 to 1000,"CONC(=O)c1ccccc1NC(C)c1cc(C)cc2c(=O)cc(N3CCC(C)(C)CC3)oc12 (stereo not drawn) [Example 19, 2-[1-[2-(4,4-Dimethyl-1-piperidyl)-6-methyl-4-oxo-chromen-8-yl]ethylamino]-N-methoxy-benzamide]"
3,1000 to 5000,"Cc1cc([C@@H](C)Nc2ccccc2C(=O)O)c2oc(N3CCCCC3)cc(=O)c2c1 [Example 376, 2-[[(1R)-1-[6-Methyl-4-oxo-2-(1-piperidyl)chromen-8-yl]ethyl]amino]benzoic acid]"

# Target: human full length PIK3CA H1047R mutant (p110α/p85α complex) (Homo sapiens (Human), UniProt P42336, H1047R)
# Sequence (P42336 whole entry H1047R): as the sequence (P42336 whole entry) above, with H1047R counted along it
# Sequence (P27986 whole entry partner): as the sequence (P27986 whole entry partner) above
# Assay: PI3K-Alpha kinase (PIK3CA) activity, H1047R mutant, Transcreener ADP2 FI assay
# Settings: PI3K-α (PIK3CA) H1047R mutant, biochemical
# Method in brief: as §1
row,IC50 [nM],Structure (SMILES)
1,500 to 1000,"CCNc1cc(=O)c2cc(C)cc(C(C)Nc3ccccc3C(=O)O)c2o1 (stereo not drawn) [Example 126, 2-[1-[2-(Ethylamino)-6-methyl-4-oxo-chromen-8-yl]ethylamino]benzoic acid]"
2,1000 to 5000,"COc1cc(C(=O)O)c(NC(C)c2cc(C)cc3c(=O)cc(N4CCC(C)(C)CC4)oc23)cc1F (stereo not drawn) [Example 1, 2-[1-[2-(4,4-dimethyl-1-piperidyl)-6-methyl-4-oxo-chromen-8-yl]ethylamino]-4-fluoro-5-methoxy-benzoic acid]"

# Tested on: T-47D
# Assay: Cellular Assay T-47D
# Assay type: cell-based
# Settings: Homo sapiens, T47D; T-47D cells
row,EC50 [µM],Structure (SMILES)
1,1 to 5,"Cc1cc(C(C)Nc2ccccc2C(=O)O)c2oc(N3CCCC(C)C3)cc(=O)c2c1 (stereo not drawn) [Example 79, 2-[1-[6-Methyl-2-(3-methyl-1-piperidyl)-4-oxo-chromen-8-yl]ethylamino]benzoic acid]"
2,> 24,"Cc1cc(C(C)Nc2cc(C)c(C)cc2C(=O)O)c2oc(N3CCC(C)(C)CC3)cc(=O)c2c1 (stereo not drawn) [Example 12, 2-[1-[2-(4,4-Dimethyl-1-piperidyl)-6-methyl-4-oxo-chromen-8-yl]ethylamino]-4,5-dimethyl-benzoic acid]"
3,15 to 24,"Cc1cc(C(C)Nc2ccccc2C(=O)O)c2oc(N3CCCC3)cc(=O)c2c1 (stereo not drawn) [Example 368, 2-[1-(6-Methyl-4-oxo-2-pyrrolidin-1-yl-chromen-8-yl)ethylamino]benzoic acid]"
4,> 24,"CCNc1cc(=O)c2cc(C)cc(C(C)Nc3ccccc3C(=O)O)c2o1 (stereo not drawn) [Example 126, 2-[1-[2-(Ethylamino)-6-methyl-4-oxo-chromen-8-yl]ethylamino]benzoic acid]"
5,> 24,"Cc1cc(C(C)Nc2ccccc2C(=O)O)c2oc(N3CCC4(CCN(C)C4=O)CC3)cc(=O)c2c1 (stereo not drawn) [Example 381, 2-[1-[6-Methyl-2-(2-methyl-1-oxo-2,8-diazaspiro[4.5]decan-8-yl)-4-oxo-chromen-8-yl]ethylamino]benzoic acid]"
6,> 24,"Cc1cc(C(C)Nc2c(C)cccc2C(=O)O)c2oc(N3CCC(C)(C)CC3)cc(=O)c2c1 (stereo not drawn) [Example 17, 2-[1-[2-(4,4-Dimethyl-1-piperidyl)-6-methyl-4-oxo-chromen-8-yl]ethylamino]-3-methyl-benzoic acid]"
7,> 24,"Cc1cc(C(C)Nc2ccccc2C(=O)O)c2oc(N3CCNCC3)cc(=O)c2c1 (stereo not drawn) [Example 91, 2-[1-(6-Methyl-4-oxo-2-piperazin-1-yl-chromen-8-yl)ethylamino]benzoic acid]"
8,1 to 5,"Cc1cc(C(C)Nc2ccccc2C(=O)O)c2oc(N3CCC(C)CC3)cc(=O)c2c1 (stereo not drawn) [Example 370, 2-[1-[6-Methyl-2-(4-methyl-1-piperidyl)-4-oxo-chromen-8-yl]ethylamino]benzoic acid]"
9,> 24,"COCCOCCOC(=O)c1ccccc1N[C@H](C)c1cc(C)cc2c(=O)cc(N3CCCCC3)oc12 [Example 377, 2-(2-Methoxyethoxy)ethyl 2-[[(1R)-1-[6-methyl-4-oxo-2-(1-piperidyl)chromen-8-yl]ethyl]amino]benzoate]"
10,15 to 24,"Cc1cc(C(C)Nc2cc(F)c(C)cc2C(=O)O)c2oc(N3CCC(C)(C)CC3)cc(=O)c2c1 (stereo not drawn) [Example 18, 2-[1-[2-(4,4-Dimethyl-1-piperidyl)-6-methyl-4-oxo-chromen-8-yl]ethylamino]-4-fluoro-5-methyl-benzoic acid]"
11,> 24,"Cc1cc(C(C)Nc2cccc(Cl)c2C(=O)O)c2oc(N3CCC(C)(C)CC3)cc(=O)c2c1 (stereo not drawn) [Example 24, 2-Chloro-6-[1-[2-(4,4-dimethyl-1-piperidyl)-6-methyl-4-oxo-chromen-8-yl]ethylamino]benzoic acid]"
12,15 to 24,"Cc1cc(C(C)Nc2ccccc2-c2nnn[nH]2)c2oc(N3CCC(C)(C)CC3)cc(=O)c2c1 (stereo not drawn) [Example 20, 2-(4,4-Dimethyl-1-piperidyl)-6-methyl-8-[1-[2-(1H-tetrazol-5-yl)anilino]ethyl]chromen-4-one]"
13,> 24,"Cc1cc(C(C)Nc2ccccc2C(=O)O)c2oc(N3CCCC4(CCNC4=O)C3)cc(=O)c2c1 (stereo not drawn) [Example 95, 2-[1-[6-Methyl-4-oxo-2-(1-oxo-2,9-diazaspiro[4.5]decan-9-yl)chromen-8-yl]ethylamino]benzoic acid]"
14,15 to 24,"Cc1cc(C(C)Nc2cc(F)c(F)cc2C(=O)O)c2oc(N3CCC(C)(C)CC3)cc(=O)c2c1 (stereo not drawn) [Example 13, 2-[1-[2-(4,4-Dimethyl-1-piperidyl)-6-methyl-4-oxo-chromen-8-yl]ethylamino]-4,5-difluoro-benzoic acid]"
15,5 to 15,"Cc1cc(C(C)Nc2ccccc2C(=O)O)c2oc(N3CCC4(CCOCC4)CC3)cc(=O)c2c1 (stereo not drawn) [Example 94, 2-[1-[6-Methyl-2-(3-oxa-9-azaspiro[5.5]undecan-9-yl)-4-oxo-chromen-8-yl]ethylamino]benzoic acid]"
16,15 to 24,"Cc1cc(C(C)Nc2cc(Cl)ccc2C(=O)O)c2oc(N3CCC(C)(C)CC3)cc(=O)c2c1 (stereo not drawn) [Example 10, 4-Chloro-2-[1-[2-(4,4-dimethyl-1-piperidyl)-6-methyl-4-oxo-chromen-8-yl]ethylamino]benzoic acid]"
17,1 to 5,"Cc1cc([C@@H](C)Nc2ccccc2C(=O)O)c2oc(N3CCC(Cl)CC3)cc(=O)c2c1 [Example 383, 2-[[(1R)-1-[2-(4-Chloro-1-piperidyl)-6-methyl-4-oxo-chromen-8-yl]ethyl]amino]benzoic acid]"

row,EC50 [µM],Structure (SMILES)
1,5 to 15,"Cc1cc(C(C)Nc2ccc(Br)cc2C(=O)O)c2oc(N3CCC(C)(C)CC3)cc(=O)c2c1 (stereo not drawn) [Example 7, 5-Bromo-2-[1-[2-(4,4-dimethyl-1-piperidyl)-6-methyl-4-oxo-chromen-8-yl]ethylamino]benzoic acid]"
2,1 to 5,"Cc1cc(C(C)Nc2ccc(F)cc2C(=O)O)c2oc(N3CCC(C)(C)CC3)cc(=O)c2c1 (stereo not drawn) [Example 14, 2-[1-[2-(4,4-Dimethyl-1-piperidyl)-6-methyl-4-oxo-chromen-8-yl]ethylamino]-5-fluoro-benzoic acid]"
3,> 24,"Cc1cc(C(C)Nc2ccccc2C(=O)O)c2oc(N3CCC4(CCNCC4)CC3)cc(=O)c2c1 (stereo not drawn) [Example 89, 2-[1-[2-(3,9-Diazaspiro[5.5]undecan-3-yl)-6-methyl-4-oxo-chromen-8-yl]ethylamino]benzoic acid]"
4,> 24,"COC(=O)c1ccccc1N[C@H](C)c1cc(C)cc2c(=O)cc(N3CCCCC3)oc12 [Example 379, Methyl 2-[[(1R)-1-[6-methyl-4-oxo-2-(1-piperidyl)chromen-8-yl]ethyl]amino]benzoate]"
5,15 to 24,"Cc1cc(C(C)Nc2c(Cl)cccc2C(=O)O)c2oc(N3CCC(C)(C)CC3)cc(=O)c2c1 (stereo not drawn) [Example 11, 3-Chloro-2-[1-[2-(4,4-dimethyl-1-piperidyl)-6-methyl-4-oxo-chromen-8-yl]ethylamino]benzoic acid]"
6,5 to 15,"Cc1cc(C(C)Nc2ccccc2S(N)(=O)=O)c2oc(N3CCC(C)(C)CC3)cc(=O)c2c1 (stereo not drawn) [Example 21, 2-[1-[2-(4,4-Dimethyl-1-piperidyl)-6-methyl-4-oxo-chromen-8-yl]ethylamino]benzenesulfonamide]"
7,> 24,"Cc1cc(C(C)Nc2cccc3c2C(=O)NC3=O)c2oc(N3CCC(C)(C)CC3)cc(=O)c2c1 (stereo not drawn) [Example 32, 4-((1-(2-(4,4-Dimethylpiperidin-1-yl)-6-methyl-4-oxo-4H-chromen-8-yl)ethyl)amino)isoindoline-1,3-dione]"
8,5 to 15,"Cc1cc(C(C)Nc2cccc(F)c2C(=O)O)c2oc(N3CCC(C)(C)CC3)cc(=O)c2c1 (stereo not drawn) [Example 23, 2-[1-[2-(4,4-Dimethyl-1-piperidyl)-6-methyl-4-oxo-chromen-8-yl]ethylamino]-6-fluoro-benzoic acid]"
9,15 to 24,"CONC(=O)c1ccccc1NC(C)c1cc(C)cc2c(=O)cc(N3CCC(C)(C)CC3)oc12 (stereo not drawn) [Example 19, 2-[1-[2-(4,4-Dimethyl-1-piperidyl)-6-methyl-4-oxo-chromen-8-yl]ethylamino]-N-methoxy-benzamide]"
10,15 to 24,"COc1cc(C(=O)O)c(NC(C)c2cc(C)cc3c(=O)cc(N4CCC(C)(C)CC4)oc23)cc1F (stereo not drawn) [Example 1, 2-[1-[2-(4,4-dimethyl-1-piperidyl)-6-methyl-4-oxo-chromen-8-yl]ethylamino]-4-fluoro-5-methoxy-benzoic acid]"
11,1 to 5,"Cc1cc(C(C)Nc2ccc(C#N)cc2C(=O)O)c2oc(N3CCC(C)(C)CC3)cc(=O)c2c1 (stereo not drawn) [Example 6, 5-Cyano-2-[1-[2-(4,4-dimethyl-1-piperidyl)-6-methyl-4-oxo-chromen-8-yl]ethylamino]benzoic acid]"
12,> 24,"COc1cc(NC(C)c2cc(C)cc3c(=O)cc(N4CCC(C)(C)CC4)oc23)c(C(=O)O)cc1OC (stereo not drawn) [Example 16, 2-[1-[2-(4,4-Dimethyl-1-piperidyl)-6-methyl-4-oxo-chromen-8-yl]ethylamino]-4,5-dimethoxy-benzoic acid]"
13,1 to 5,"Cc1cc([C@@H](C)Nc2ccccc2C(=O)O)c2oc(N3CCCCC3)cc(=O)c2c1 [Example 376, 2-[[(1R)-1-[6-Methyl-4-oxo-2-(1-piperidyl)chromen-8-yl]ethyl]amino]benzoic acid]"
14,> 24,"Cc1cc(C(C)Nc2ccccc2C(=O)O)c2oc(N3CCN(C)CC3)cc(=O)c2c1 (stereo not drawn) [Example 92, 2-[1-[6-Methyl-2-(4-methylpiperazin-1-yl)-4-oxo-chromen-8-yl]ethylamino]benzoic acid]"
15,> 24,"Cc1cc(C(C)Nc2ccccc2C(=O)O)c2oc(N3CCC3)cc(=O)c2c1 (stereo not drawn) [Example 375, 2-[1-[2-(Azetidin-1-yl)-6-methyl-4-oxo-chromen-8-yl]ethylamino]benzoic acid]"
16,5 to 15,"Cc1cc(C(C)Nc2cc(F)ccc2C(=O)O)c2oc(N3CCC(C)(C)CC3)cc(=O)c2c1 (stereo not drawn) [Example 36, 2-[1-[2-(4,4-Dimethyl-1-piperidyl)-6-methyl-4-oxo-chromen-8-yl]ethylamino]-4-fluoro-benzoic acid]"

row,Structure (SMILES),EC50 [µM]
1,"Cc1cc(C(C)Nc2ccccc2C(=O)O)c2oc(N3CCN(C(=O)OC(C)(C)C)CC3)cc(=O)c2c1 (stereo not drawn) [Example 90, 2-[1-[2-(4-tert-Butoxycarbonylpiperazin-1-yl)-6-methyl-4-oxo-chromen-8-yl]ethylamino]benzoic acid]",15 to 24
